Where two headings read alike, the source gives them in different places.
Columns and labels:
[1] = Caco-2 cell permeability study; format: in vitro ADME; settings: human; for efflux ratio at 2 h, 5 µM: Caco-2, pH 7.4; for recovery at 2 h, 5 μM: Caco-2, pH 7.4, Caco-2, 5 μM; for Papp A→B at 2 h, 5 µM / Papp B→A at 2 h, 5 µM: pH 7.4, Caco-2, 5 μM; for Papp A→B at 2 h, 5 µM: apical to basolateral; for Papp B→A at 2 h, 5 µM: basolateral to apical
From the text: One of the physicochemical quantities that mirrors the interaction of a compound with the cell membrane is permeability. Traditionally, measuring permeability with the PAMPA model provides estimates of passive permeability across a model membrane. […] Therefore, we measure the cell permeability of the six compounds using Caco-2 cells, so that the apical to basolateral (A to B) and basolateral to apical (B to A) permeabilities, and thereby the efflux ratio, can be determined. Three commercial drugs (Table 2) are used as standard compounds to establish and validate our in-house assay.
For Caco-2 cells (originally obtained from the American Type Culture Collection; ATCC, Manassas, VA, USA), 50 μL and […] of cell culture medium are added to each well of the Transwell insert and reservoir, respectively. And then the HTS transwell plates are incubated at 37 °C, 5% CO2 for 1 h before cell seeding. Caco-2 cells are diluted to 6.86 × 10^5 cells/mL with culture medium and 50 μL of cell suspension is dispensed into the filter well of the 96-well HTS Transwell plate. Cells are cultivated for 14–18 days in a cell culture incubator at 37 °C, 5% CO2, 95% relative humidity. Cell culture medium is replaced every other day, beginning no later than 24 h after initial plating. Stock solutions of the test compounds are prepared at a concentration of 10 mM in DMSO. […] Detailed assay procedures are provided in the SI. […]
dilution factor is changed according to the log D value and the LC-MS signal response. The samples are evaluated by LC-MS/MS analysis. All experiments are performed in duplicates.
5. Caco-2 Cell Permeability Assay
The Caco-2 plate is removed from the incubator and washed twice with pre-warmed HBSS (10 mM HEPES, pH 7.4), and then incubated at 37 °C for 30 minutes. The stock solutions of control compounds and test compounds are diluted in DMSO to get 1 mM solutions and then diluted with HBSS (10 mM HEPES, pH 7.4) get 5 μM working solutions. The final concentration of DMSO in the incubation system is 0.5%. To determine the rate of drug transport in the apical to basolateral direction. 125 μL of 5 μM working solution of control compounds and test compounds are added to the Transwell insert (apical compartment), and transfer 50 μL sample (D0 sample) immediately from the apical compartment to a new 96-well plate. Fill the wells in the receiver plate (basolateral compartment) with 235 μL of HBSS (10 mM HEPES, pH 7.4). To determine the rate of drug transport in the basolateral to apical direction. 285 μL of 5 μM working solution of control compounds and test compounds are to the receiver plate wells (basolateral compartment), and transfer 50 μL sample (D0 sample) immediately from the basolateral compartment to a new 96-well plate.
Fill the wells in the Transwell insert (apical compartment) with 75 μL of HBSS (10 mM HEPES, pH 7.4).
The assay is performed in duplicate. The plates are incubated at 37 °C for 2 h. At the end of the incubation, 50 μL samples from donor sides (apical compartment for Ap→Bl flux, and basolateral compartment for Bl→Ap) and receiver sides (basolateral compartment for Ap→Bl flux, and apical compartment for Bl→Ap) are transferred to wells of a new 96-well plate, followed by the addition of 4 volume of cold acetonitrile containing appropriate internal standards (IS). Samples are Vortexed for 5 minutes and then centrifuged at 3,220 g for 30 minutes. An aliquot of 100 µL of the supernatant is mixed with an appropriate volume of ultra-pure water before LC-MS/MS analysis (see SI Bioanalytical Method for Caco-2 Cell Permeability […]
Papp (A to B) is greater than the Papp (A to B) of minoxidil it is assigned as high permeability. If the Papp (A to B) is […]

PATU8988T cells = experiment: CCK-8 antiproliferative assay, PATU8988T; format: cell-based; settings: Homo sapiens, PaTu 8988t; CCK-8, 72 h, mean ± SEM (n = 3); read-out: Cell proliferation IC50 PATU8988T
Protocol: The inhibitory activities against human pancreatic cancer PANC-1 cells of the synthesized compounds were evaluated by CCK-8 assay.
Human pancreatic cancer cell lines PANC-1, PATU8988T and BxPC3 were purchased from the Cancer Institute & Hospital of the Chinese Academy of Medical Sciences (Shanghai, China). All three cell lines were cultured in RPMI-DMEM medium containing 10% fetal bovine serum, cultured at a constant temperature of 37 °C in a humidified incubator with 5% CO2.
Pancreatic cancer cells are seeded into 96-well plates. After a proliferation time of 16 h, different concentrations of compounds are added into the corresponding wells and incubated for 72 h. 10 μL of CCK-8 solution is added into each well and incubated for 1–4 h at 37 °C. Shake the plates and read the OD value of each well at 450 nm on a microplate reader.
1. Characterization of biological activity
Supplementary Figure S1. Cell viability is assessed using the CCK -8 assay following 72 h treatment with the tested compounds in pancreatic cancer cell lines: a) PATU8988T, b) BxPC3.
Supplementary Table S1. The effects of compounds against two pancreatic cancer cell lines were evaluated using […]
Cell proliferation IC 50(µM)a
[a] IC50 va lues of the tested compounds ar e determined in PATU8988T an d BxPC3 cells. […]
Supplementary Figure S2. Convergence of the PMF calculated from WTM -eABF simulation . […]

[2] = read-out: Mean % Solution Recovery A to B
[3] = read-out: Mean % Solution Recovery B to A

Compound: CCCCCCCCCCCCCC1OC(=O)CN(C)C(=O)C=CC(CN2CCN(C)CC2)NC(=O)CNC(=O)C(C)(O)C(=O)C1C (stereo not drawn) [BE-NMP]
- efflux ratio at 2 h, 5 µM [1]: > 65.3
- recovery at 2 h, 5 μM [1, 2]: < 23.5%
- recovery at 2 h, 5 μM [1, 3]: 8.99%
- Papp A→B at 2 h, 5 µM [1]: < 0.0144 ×10⁻⁶ cm/s
- Papp B→A at 2 h, 5 µM [1]: 0.942 ×10⁻⁶ cm/s

Compound: CCCCOc1ccc(-c2ccc(-c3ccc(Cn4cc(CCCCC[C@H]5OC(=O)CN(C)C(=O)/C=C/[C@@H](CN6CCN(C)CC6)NC(=O)CNC(=O)[C@@](C)(O)C(=O)[C@H]5C)nn4)cc3)cc2)cc1 [Compound 29]
- recovery at 2 h, 5 μM [1, 2]: < 92.9%
- recovery at 2 h, 5 μM [1, 3]: < 71.1%
- Papp A→B at 2 h, 5 µM [1]: < 0.00798 ×10⁻⁶ cm/s
- Papp B→A at 2 h, 5 µM [1]: < 0.00266 ×10⁻⁶ cm/s
- IC50 (PATU8988T cells): > 50 µM

Compound: CC1C(=O)C(C)(O)C(=O)NCC(=O)NC(CN2CCN(C)CC2)C=CC(=O)N(C)CC(=O)OC1CCCCc1cn(CCCCCCCCNC(=N)N)nn1 (stereo not drawn) [Compound 31]
- efflux ratio at 2 h, 5 µM [1]: 2.57
- recovery at 2 h, 5 μM [1, 2]: 109%
- recovery at 2 h, 5 μM [1, 3]: 70.4%
- Papp A→B at 2 h, 5 µM [1]: 0.0348 ×10⁻⁶ cm/s
- Papp B→A at 2 h, 5 µM [1]: 0.0894 ×10⁻⁶ cm/s
- IC50 (PATU8988T cells): > 50 µM

Compound: C[C@@H]1C(=O)[C@](C)(O)C(=O)NCC(=O)N[C@H](CN2CCN(C)CC2)/C=C/C(=O)N(C)CC(=O)O[C@H]1CCCCCc1cn(CCCCCCCNc2cccc3c2CN(C2CCC(=O)NC2=O)C3=O)nn1 (stereo partly drawn) [Compound 40]
- efflux ratio at 2 h, 5 µM [1]: > 10.8
- recovery at 2 h, 5 μM [1, 2]: < 89.4%
- recovery at 2 h, 5 μM [1, 3]: 50.4%
- Papp A→B at 2 h, 5 µM [1]: < 0.0116 ×10⁻⁶ cm/s
- Papp B→A at 2 h, 5 µM [1]: 0.13 ×10⁻⁶ cm/s
